Like-named read-outs stand apart in the source and are kept apart here.
Tests used:
[1] = biological target: hASIC3 (human non-inactivating amiloride-sensitive proton-gated ion channel subunit) (human); assay: cell-based or functional assay
[2] = biological target: rat P2x2 (ATP-gated ion channel subunit) (rat) (UniProt P49653); assay: cell-based or functional assay
[3] = biological target: T1, human non-inactivating proton-gated ion channel hASIC3 (homomeric channels), SEQ ID No. 2 (Homo sapiens, UniProt Q9UHC3); assay: Two-electrode voltage clamp of proton-induced currents in Xenopus oocytes expressing the channel; assay type: cell-based; conditions: for remaining activity at 100 µM: 100 µM amiloride, currents activated by pH 4.0, mean +/- SEM (n= 17); for inhibition at 100 µM: co-application of 100 micro M amiloride with pH 4.0, biphasic response, hASIC3 in Xenopus oocytes
T1 sequence (Q9UHC3 1-531): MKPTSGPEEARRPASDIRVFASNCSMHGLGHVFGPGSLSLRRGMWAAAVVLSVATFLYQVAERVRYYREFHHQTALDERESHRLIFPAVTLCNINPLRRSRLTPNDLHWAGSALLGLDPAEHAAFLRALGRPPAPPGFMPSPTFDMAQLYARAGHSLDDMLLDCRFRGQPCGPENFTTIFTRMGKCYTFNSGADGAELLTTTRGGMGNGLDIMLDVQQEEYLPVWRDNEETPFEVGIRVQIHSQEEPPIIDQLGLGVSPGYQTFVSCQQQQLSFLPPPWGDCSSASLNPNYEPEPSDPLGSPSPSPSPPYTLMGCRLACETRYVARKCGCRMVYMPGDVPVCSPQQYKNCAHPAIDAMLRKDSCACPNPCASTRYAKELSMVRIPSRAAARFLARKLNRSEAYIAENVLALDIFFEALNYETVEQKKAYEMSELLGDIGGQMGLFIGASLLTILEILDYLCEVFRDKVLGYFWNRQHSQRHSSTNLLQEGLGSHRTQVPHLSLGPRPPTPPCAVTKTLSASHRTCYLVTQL
Experimental: Oocytes surgically removed from adult Xenopus laevis were treated for 2 h at room temperature with type II collagenase (Gibco-BRL) in Barth's solution under constant agitation. Selected oocytes at stage IV-V were defolliculated manually before nuclear micro-injections (Bertrand et al., 1991) of 5 ng of hASlC3 in pcDNA3 vector. After 2-4 days of expression at 19^-C in Barth's solution containing 50Êg/ml gentamycin, currents were recorded in the two-electrode voltage clamp configuration using an OC-725B amplifier (Warner Instruments). Whole cell currents were acquired and digitized at 500 Hz on a Macintosh IIci computer with an A/D NB-MIO16XL interface (National Instruments) then recorded traces were post-filtered at 100 Hz in Axograph (Axon Instruments). Agonist, amiloride and wash solutions were prepared in a modified Ringer's solution containing 115 mM NaCl, 2.5 mM KCI, 1.8 mM CaCl2 in 5-20 mM HEPES (Sigma) buffer adjusted with NaOH or HCl at pH 2 to 8 and applied on oocytes by constant perfusion (10-12 ml/min) at room temperature. Mean values ± SEM corresponded to measurements from a minimum of 5 oocytes.

Chain of rat P2x2 (ATP-gated ion channel subunit) (rat) (P49653 whole entry): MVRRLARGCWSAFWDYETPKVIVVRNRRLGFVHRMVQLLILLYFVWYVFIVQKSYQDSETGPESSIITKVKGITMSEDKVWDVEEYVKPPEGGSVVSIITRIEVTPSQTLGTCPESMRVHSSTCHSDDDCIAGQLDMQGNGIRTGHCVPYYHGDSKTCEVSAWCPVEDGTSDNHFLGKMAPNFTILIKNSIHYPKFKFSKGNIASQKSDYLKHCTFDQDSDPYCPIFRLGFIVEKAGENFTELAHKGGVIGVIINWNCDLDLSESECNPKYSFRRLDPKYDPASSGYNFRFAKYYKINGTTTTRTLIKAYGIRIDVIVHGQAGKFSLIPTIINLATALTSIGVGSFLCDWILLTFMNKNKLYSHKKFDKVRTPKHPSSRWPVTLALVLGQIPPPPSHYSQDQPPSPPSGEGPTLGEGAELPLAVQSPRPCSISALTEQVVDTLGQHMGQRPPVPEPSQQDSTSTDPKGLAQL

| non-inactivating cationic current induced by strong acid in Xenopus oocytes injected with the hASIC3 clone alone [1] [pH] | inward currents in Xenopus oocytes coinjected with hASIC3 and P2x2 (two-electrode voltage clamp), activating pH [2] [pH] | non-inactivating cation current induced by weak acid in Xenopus oocytes coinjected with hASIC3 clone and rat P2x2 clone [2] [pH] | Compound | remaining activity at 100 µM ([3]; read-out: residual peak currents during amiloride application, fast component, expressed as percent of controls) [%] | remaining activity at 100 µM ([3]; read-out: residual peak currents during amiloride application, sustained component, expressed as percent of controls) [%] | inhibition at 100 µM ([3]; read-out: blockade of the fast current by amiloride) [%] | inhibition at 100 µM ([3]; read-out: blockade of the slow current by amiloride) [%] |
| --- | --- | --- | --- | --- | --- | --- | --- |
| 4 | 6.5 | 6.5 | hASIC3 (human non-inactivating amiloride-sensitive proton-gated ion channel subunit) |  |  |  |  |
|  |  |  | N=C(N)NC(=O)c1nc(Cl)c(N)nc1N [amiloride] | 37.2 ± 6.4 | 72 ± 3.8 | 62.8 ± 6.5 | 28.7 ± 4.6 |

Reference: EP1025226B1, “DNA ENCODING A HUMAN PROTON-GATED ION CHANNEL AND USES THEREOF” (McGill University, priority 1997, dated 1999)
